Read-outs that look alike come from different tables or passages of the source.
How the values were obtained:
Assay in all cases: SelectScreen Kinase Profiling, single point inhibition and IC50 for off-target kinases
Assay type in all cases: biochemical
[1] = target: off-target kinases (Homo sapiens, UniProt Q9BYT3); conditions: STK33, LanthaScreen Binding
[2] = target: off-target kinases (Homo sapiens, UniProt P10721, T670I/V559D); conditions: KIT V559D T670I, LanthaScreen Binding
[3] = target: T1, off-target kinases (Homo sapiens, UniProt P41743); conditions: PRKCI (PKC iota), ZLYTE, ATP Km app
T1 sequence (P41743 1-596): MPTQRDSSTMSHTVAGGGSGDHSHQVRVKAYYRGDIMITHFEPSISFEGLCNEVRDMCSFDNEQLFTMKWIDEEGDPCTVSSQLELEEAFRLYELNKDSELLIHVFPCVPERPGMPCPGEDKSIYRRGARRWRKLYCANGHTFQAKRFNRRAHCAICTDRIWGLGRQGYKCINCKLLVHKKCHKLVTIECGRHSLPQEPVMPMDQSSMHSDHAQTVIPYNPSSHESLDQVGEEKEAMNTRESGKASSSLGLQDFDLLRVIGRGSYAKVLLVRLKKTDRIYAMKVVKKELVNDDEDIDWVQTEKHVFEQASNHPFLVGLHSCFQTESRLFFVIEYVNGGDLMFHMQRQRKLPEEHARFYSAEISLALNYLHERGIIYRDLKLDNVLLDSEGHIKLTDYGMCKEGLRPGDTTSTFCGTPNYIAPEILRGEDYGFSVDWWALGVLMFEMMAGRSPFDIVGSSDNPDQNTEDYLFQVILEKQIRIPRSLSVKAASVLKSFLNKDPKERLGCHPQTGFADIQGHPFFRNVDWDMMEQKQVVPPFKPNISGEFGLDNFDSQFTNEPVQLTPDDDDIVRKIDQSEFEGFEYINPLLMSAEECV

[4] = target: T2, off-target kinases (Homo sapiens, UniProt O94806); conditions: PRKCN (PKD3), ATP Km app, ZLYTE
T2 sequence (O94806 1-890): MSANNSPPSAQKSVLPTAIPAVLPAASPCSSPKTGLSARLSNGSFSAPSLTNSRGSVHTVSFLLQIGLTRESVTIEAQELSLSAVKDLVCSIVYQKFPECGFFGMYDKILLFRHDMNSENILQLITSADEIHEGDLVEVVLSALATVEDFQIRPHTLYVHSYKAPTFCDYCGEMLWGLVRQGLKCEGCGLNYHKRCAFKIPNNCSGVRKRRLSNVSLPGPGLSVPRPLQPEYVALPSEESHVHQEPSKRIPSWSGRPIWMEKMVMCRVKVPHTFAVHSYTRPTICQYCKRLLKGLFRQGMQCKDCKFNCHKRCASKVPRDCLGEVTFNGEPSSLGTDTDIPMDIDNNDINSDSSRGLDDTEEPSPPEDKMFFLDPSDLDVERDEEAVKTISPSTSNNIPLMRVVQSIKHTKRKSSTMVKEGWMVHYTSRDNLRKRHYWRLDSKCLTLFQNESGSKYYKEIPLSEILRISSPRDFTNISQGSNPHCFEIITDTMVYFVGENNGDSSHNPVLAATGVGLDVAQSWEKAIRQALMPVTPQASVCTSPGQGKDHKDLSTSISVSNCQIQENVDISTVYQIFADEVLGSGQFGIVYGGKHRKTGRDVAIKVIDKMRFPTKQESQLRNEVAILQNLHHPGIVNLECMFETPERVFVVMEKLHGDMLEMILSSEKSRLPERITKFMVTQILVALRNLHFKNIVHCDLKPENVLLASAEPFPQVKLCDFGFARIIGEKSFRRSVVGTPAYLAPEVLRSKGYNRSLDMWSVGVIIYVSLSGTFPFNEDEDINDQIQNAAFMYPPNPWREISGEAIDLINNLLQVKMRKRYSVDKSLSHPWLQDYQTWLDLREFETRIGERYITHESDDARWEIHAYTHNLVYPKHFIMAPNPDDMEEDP

off-target kinases (Homo sapiens, UniProt Q9BYT3), sequence (Q9BYT3 whole entry): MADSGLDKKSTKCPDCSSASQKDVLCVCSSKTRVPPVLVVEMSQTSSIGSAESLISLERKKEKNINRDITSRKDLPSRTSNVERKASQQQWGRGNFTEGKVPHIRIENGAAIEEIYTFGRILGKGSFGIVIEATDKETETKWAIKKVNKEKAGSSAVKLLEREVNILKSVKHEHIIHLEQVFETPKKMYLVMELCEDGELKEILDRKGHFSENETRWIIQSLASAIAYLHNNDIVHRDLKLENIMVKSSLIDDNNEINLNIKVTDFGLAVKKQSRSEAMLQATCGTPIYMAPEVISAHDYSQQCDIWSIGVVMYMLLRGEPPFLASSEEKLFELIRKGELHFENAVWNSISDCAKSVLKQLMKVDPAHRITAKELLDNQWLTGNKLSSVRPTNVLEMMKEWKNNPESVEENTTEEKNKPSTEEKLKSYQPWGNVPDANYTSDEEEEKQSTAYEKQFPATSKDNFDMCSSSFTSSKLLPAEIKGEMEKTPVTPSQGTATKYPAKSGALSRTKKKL
off-target kinases (Homo sapiens, UniProt P10721, T670I/V559D), sequence (P10721 26-976 V559D/T670I): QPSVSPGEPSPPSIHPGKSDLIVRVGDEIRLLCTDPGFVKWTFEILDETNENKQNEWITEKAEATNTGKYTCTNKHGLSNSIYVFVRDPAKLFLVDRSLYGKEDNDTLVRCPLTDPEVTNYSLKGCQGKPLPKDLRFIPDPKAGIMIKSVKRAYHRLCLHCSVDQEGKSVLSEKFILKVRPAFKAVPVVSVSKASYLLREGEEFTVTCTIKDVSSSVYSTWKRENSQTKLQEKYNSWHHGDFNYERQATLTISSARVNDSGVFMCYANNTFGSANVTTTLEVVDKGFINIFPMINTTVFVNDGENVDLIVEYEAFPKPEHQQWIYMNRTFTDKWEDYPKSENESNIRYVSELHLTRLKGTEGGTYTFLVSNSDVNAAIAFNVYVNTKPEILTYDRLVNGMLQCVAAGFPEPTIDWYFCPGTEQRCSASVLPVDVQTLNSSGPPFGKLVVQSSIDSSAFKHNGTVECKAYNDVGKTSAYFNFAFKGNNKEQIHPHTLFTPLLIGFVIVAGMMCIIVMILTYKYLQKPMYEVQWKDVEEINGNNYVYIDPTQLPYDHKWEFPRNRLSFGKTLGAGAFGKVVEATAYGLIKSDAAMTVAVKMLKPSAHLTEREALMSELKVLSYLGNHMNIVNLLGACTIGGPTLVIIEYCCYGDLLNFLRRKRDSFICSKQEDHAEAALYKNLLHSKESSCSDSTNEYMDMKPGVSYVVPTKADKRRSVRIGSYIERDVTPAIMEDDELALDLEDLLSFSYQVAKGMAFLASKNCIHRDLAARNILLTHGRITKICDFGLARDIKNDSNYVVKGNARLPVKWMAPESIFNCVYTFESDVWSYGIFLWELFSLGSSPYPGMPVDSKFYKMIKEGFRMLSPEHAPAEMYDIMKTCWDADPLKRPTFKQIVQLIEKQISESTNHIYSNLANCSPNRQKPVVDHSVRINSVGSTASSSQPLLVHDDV

N#Cc1cc(-c2ncnc(Nc3ccc(N4CCN(C5COC5)CC4)cc3)n2)ccc1OC1CCOCC1 [Compound 1, 5-(4-((4-(4-(oxetan-3-yl)piperazin-1-yl)phenyl)amino)-1,3,5-triazin-2-yl)-2-((tetrahydro-2H-pyran-4-yl)oxy)benzonitrile]
inhibition ([1]; read-out: % Inhibition 1): 59%
inhibition ([1]; read-out: % Inhibition 2): 55%
inhibition ([1]; read-out: % Inhibition Avg): 57%
inhibition ([2]; read-out: % Inhibition 1): 46%
inhibition ([2]; read-out: % Inhibition 2): 49%
inhibition ([2]; read-out: % Inhibition Avg): 47%
inhibition ([3]; read-out: % Inhibition 1): 5%
inhibition ([3]; read-out: % Inhibition 2): 7%
inhibition ([3]; read-out: % Inhibition Avg): 6%
inhibition ([4]; read-out: % Inhibition 1): 98%
inhibition ([4]; read-out: % Inhibition 2): 96%
inhibition ([4]; read-out: % Inhibition Avg): 97%

Reference: patent US11572590B2, “Methods for evaluating tumor cell spheroids using 3D microfluidic cell culture device” (Dana-Farber Cancer Institute, Inc., priority 2017, dated 2023)
